Source: ChEMBL document CHEMBL1201862, “PubChem BioAssay data set” (2004)
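Cultured in 96-well plates, cells were exposed to test compound for 48 hours across five concentrations. Abbreviation: GI50, concentration required for 50% inhibition of growth.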 Calls of active or inactive are those of the source. Rule as the data show it: active = GI50 up to about 1.1 µM and inactive = higher.

Legend:
Experiment in all cases: DTP human tumour cell line panel, 48 h
LXFL 529 = system: LXFL 529
RXF 631 = system: RXF 631
SNB-78 = system: SNB-78
XF498 = system: XF498
M19-MEL = system: M19-MEL
DLD-1 = system: DLD-1
KM-20L2 = system: KM-20L2
DMS-273 = system: DMS-273
HOP-18 = system: HOP-18

SMILES | GI50 (LXFL 529) | GI50 (RXF 631) | GI50 (SNB-78) | GI50 (XF498) | GI50 (M19-MEL) | GI50 (DLD-1) | GI50 (KM-20L2) | GI50 (DMS-273) | GI50 (HOP-18)
CS(=O)(=O)Nc1ccc(Nc2c3ccccc3nc3ccccc23)cc1 | 3.43 µM (inactive) | 1.77 µM (inactive) | 7.83 µM (inactive) | 2.6 µM (inactive) | 2.32 µM (inactive) | 4.15 µM (inactive) | 3.06 µM (inactive) | 0.658 µM (active) | 2.82 µM (inactive)
C=C1CC2(OC1=O)c1ccccc1CCc1ccccc12 | 1.7 µM (inactive) | – | 2.18 µM (inactive) | 2.41 µM (inactive) | 1.83 µM (inactive) | 1.83 µM (inactive) | 4.06 µM (inactive) | 3.49 µM (inactive) | 1.97 µM (inactive)
CCC(C)C(N)C(=O)NC(CC(N)=O)C(=O)NC(CC(C)C)C(=O)NC(CCCCN)C(=O)NC(C)C(=O)NC(CC(C)C)C(=O)NC(C)C(=O)NC(C)C(=O)NC(CC(C)C)C(=O)NC(C)C(=O)NC(CCCCN)C(=O)NC(CCCCN)C(=O)NC(C(=O)NC(CC(C)C)C(N)=O)C(C)CC (centres undefined) | 14.9 µM (inactive) | 7.82 µM (inactive) | 11.3 µM (inactive) | – | 10.1 µM (inactive) | 10.4 µM (inactive) | 22.5 µM (inactive) | 7.43 µM (inactive) | 7.01 µM (inactive)
COc1ccc(-c2cc(-c3cc(C)ccc3O)nc(O)n2)cc1 | 64 µM (inactive) | > 100 µM (inactive) | 43.7 µM (inactive) | – | > 100 µM (inactive) | > 100 µM (inactive) | > 100 µM (inactive) | 50.8 µM (inactive) | > 100 µM (inactive)
C[C@]12CCCC(=O)C1C[C@H](C(=O)O)CC2 (some centres undefined) | > 100 µM (inactive) | > 100 µM (inactive) | – | > 100 µM (inactive) | > 100 µM (inactive) | > 100 µM (inactive) | > 100 µM (inactive) | > 100 µM (inactive) | > 100 µM (inactive)
Cc1cc2nc3c(C(OC4OC(CO)C(O)C(O)C4O)C(O)CO)nn(-c4ccccc4)c3nc2cc1C (centres undefined) | – | – | > 100 µM (inactive) | > 100 µM (inactive) | – | > 100 µM (inactive) | > 100 µM (inactive) | – | –
COC(=O)C(CC(=O)Nc1ccc(C)cc1)C(=O)C(=O)Nc1ccccc1C(C)C (centres undefined) | > 100 µM (inactive) | – | > 100 µM (inactive) | > 100 µM (inactive) | > 100 µM (inactive) | > 100 µM (inactive) | > 100 µM (inactive) | > 100 µM (inactive) | > 100 µM (inactive)
CCOc1ccc(/C=C(\Cl)c2ccc(OC)cc2)cc1 | > 100 µM (inactive) | – | > 100 µM (inactive) | > 100 µM (inactive) | > 100 µM (inactive) | > 100 µM (inactive) | > 100 µM (inactive) | > 100 µM (inactive) | > 100 µM (inactive)
CCC(C)(C)NS(=O)(=O)c1ccccc1 | > 100 µM (inactive) | – | > 100 µM (inactive) | > 100 µM (inactive) | > 100 µM (inactive) | > 100 µM (inactive) | > 100 µM (inactive) | > 100 µM (inactive) | –
COc1ccc(C[C@]23CCC(=O)N2CCc2cc(OC)c(O)cc23)cc1O | > 100 µM (inactive) | > 100 µM (inactive) | > 100 µM (inactive) | – | > 100 µM (inactive) | – | > 100 µM (inactive) | > 100 µM (inactive) | > 100 µM (inactive)
COc1ccc(NC(=O)C(=O)C2NC(=S)NC2=O)c(OC)c1 (centres undefined) | > 100 µM (inactive) | > 100 µM (inactive) | > 100 µM (inactive) | – | > 100 µM (inactive) | > 100 µM (inactive) | > 100 µM (inactive) | > 100 µM (inactive) | –
Clc1cc(Cc2cc(Cl)c(Cl)c3c2OCOC3)c2c(c1Cl)COCO2 | 37.7 µM (inactive) | – | 45.1 µM (inactive) | – | 82.8 µM (inactive) | > 100 µM (inactive) | > 100 µM (inactive) | 38.7 µM (inactive) | 23.8 µM (inactive)
O=C(CSc1nnc(Cc2ccccc2)o1)Nc1ccccc1Cl | > 100 µM (inactive) | – | > 100 µM (inactive) | – | > 100 µM (inactive) | > 100 µM (inactive) | > 100 µM (inactive) | > 100 µM (inactive) | > 100 µM (inactive)
NC(=S)NNC(=O)/C(=C/c1ccc(/C=C(\NC(=O)c2ccccc2)C(=O)NNC(N)=S)cc1)NC(=O)c1ccccc1 | 80 µM (inactive) | – | 53.3 µM (inactive) | 70 µM (inactive) | 72.8 µM (inactive) | > 63.7 µM (inactive) | > 100 µM (inactive) | > 100 µM (inactive) | > 100 µM (inactive)
CCCCCCCCCCNC(=S)OCCCC | 22.9 µM (inactive) | 26.4 µM (inactive) | 35.3 µM (inactive) | 20.1 µM (inactive) | 35.3 µM (inactive) | 27.2 µM (inactive) | 19.1 µM (inactive) | 20.3 µM (inactive) | 26.9 µM (inactive)
COc1cc(Br)c(CC2=NCCc3cc(OC)c(OC)cc32)cc1OC | 12.5 µM (inactive) | 10.2 µM (inactive) | – | – | 27.9 µM (inactive) | 45.4 µM (inactive) | 3.18 µM (inactive) | 15.9 µM (inactive) | 11.3 µM (inactive)
O=C(c1cccs1)N(C(=S)N1CCN(c2ccccn2)CC1)C1CCCCC1 | 58.6 µM (inactive) | – | > 100 µM (inactive) | – | – | 63.8 µM (inactive) | 70.6 µM (inactive) | 43.1 µM (inactive) | > 100 µM (inactive)
CN(C)C(=S)/N=c1\ss/c(=N/c2ccccc2)n1C | > 100 µM (inactive) | 44.6 µM (inactive) | 32.4 µM (inactive) | – | > 100 µM (inactive) | > 100 µM (inactive) | > 100 µM (inactive) | > 100 µM (inactive) | > 100 µM (inactive)
CC(=O)Oc1cc(C)c2c(c1OC(C)=O)CC1(O2)[C@@H](C)CCC2[C@@]3(C)CC[C@H](OC(C)=O)C(C)(C)C3CC[C@]21C (some centres undefined) | 4.62 µM (inactive) | 5.4 µM (inactive) | 2.24 µM (inactive) | – | 2.02 µM (inactive) | 3.42 µM (inactive) | 14.1 µM (inactive) | 2.25 µM (inactive) | 2.64 µM (inactive)
O=[N+]([O-])c1ccc(OCCNc2cccc3ccccc23)cc1 | 33.3 µM (inactive) | > 100 µM (inactive) | – | > 100 µM (inactive) | > 100 µM (inactive) | 37.9 µM (inactive) | > 100 µM (inactive) | 46.7 µM (inactive) | > 100 µM (inactive)
CCCCCCCC(CC(=O)NC(CO)C(=O)NC(CO)CC(C)C)OC(=O)CC(CCCCCCC)OC(=O)CC(CCCCCCC)OC1OC(C)C(O)C(OC2OC(C)C(O)C(O)C2O)C1O (centres undefined) | 4.84 µM (inactive) | – | 20.2 µM (inactive) | – | 10.4 µM (inactive) | 16 µM (inactive) | 15.7 µM (inactive) | 10.9 µM (inactive) | 17.6 µM (inactive)
O=C(Nc1nc2ccccc2n1Cc1ccc(Cl)cc1)NC12CC3CC(CC(C3)C1)C2 | 20.3 µM (inactive) | – | – | 13.4 µM (inactive) | 39.4 µM (inactive) | 36.2 µM (inactive) | 64.7 µM (inactive) | 13.8 µM (inactive) | 27.6 µM (inactive)
N#C/N=C(\NCCc1c[nH]c2ccccc12)NCc1ccccc1 | 48.2 µM (inactive) | – | > 100 µM (inactive) | 29.6 µM (inactive) | 81.3 µM (inactive) | 94.8 µM (inactive) | 16.3 µM (inactive) | 69.2 µM (inactive) | –
CSC1(C)CC2C(CC1N1CCOCC1)C2(C)C (centres undefined) | > 100 µM (inactive) | – | > 100 µM (inactive) | > 100 µM (inactive) | > 100 µM (inactive) | > 100 µM (inactive) | – | > 100 µM (inactive) | > 100 µM (inactive)
CC(C)CCC[C@@H](C)C1CCC2[C@@H]3CC=C4C[C@@H](C(=O)NCCN(C)C)CC[C@]4(C)C3CC[C@@]21C (some centres undefined) | 13.9 µM (inactive) | – | > 100 µM (inactive) | 8.11 µM (inactive) | 19.7 µM (inactive) | 36.1 µM (inactive) | 83 µM (inactive) | 24.4 µM (inactive) | 22.4 µM (inactive)
CC1=Nc2c(ccc3c2C(=O)c2ccccc2C3=O)NC(c2cccc3c2CCC3)C1 (centres undefined) | > 100 µM (inactive) | 70.1 µM (inactive) | > 100 µM (inactive) | > 100 µM (inactive) | > 43.4 µM (inactive) | 46.1 µM (inactive) | > 100 µM (inactive) | > 73.6 µM (inactive) | > 67.3 µM (inactive)
CC(=O)OC1CC2C(C)(C)C(=O)C=C[C@]2(C)C2CCC3(C)C(c4ccoc4)C(=O)[C@H]4O[C@]43[C@]12C (some centres undefined) | 33.7 µM (inactive) | – | 57.8 µM (inactive) | – | 20.4 µM (inactive) | 13.6 µM (inactive) | > 10 µM (inactive) | – | –
C=CCOc1cc2c(cc1C(C)c1ccc(OC)cc1)OCO2 (centres undefined) | 0.718 µM (active) | – | 1.46 µM (inactive) | 0.287 µM (active) | 0.718 µM (active) | 0.533 µM (active) | 0.348 µM (active) | 0.421 µM (active) | –
COc1ccc(CNc2cc(OC)cc(OC)c2)cc1 | 49.3 µM (inactive) | – | 29.6 µM (inactive) | 63.5 µM (inactive) | 72.3 µM (inactive) | – | – | – | –
C[C@]12C=CC(=O)C=C1CC[C@H]1[C@@H]3C[C@@H](O)[C@](O)(C(=O)CO)[C@@]3(C)C[C@H](O)[C@@]12F [TRIAMCINOLONE] | > 100 µM (inactive) | > 100 µM (inactive) | > 100 µM (inactive) | > 100 µM (inactive) | > 100 µM (inactive) | > 100 µM (inactive) | > 100 µM (inactive) | > 100 µM (inactive) | –
